According to patent US20030204875A1, “Novel agrobacterium-mediated plant transformation method” (priority 1999, published 2003):
Where two headings read alike, the source gives them in different places.

Legend:
Agrobacterium cells = settings: for Results (growth of Agrobacterium cells): 15 hours; for OD A660 after 15 hours growth: starting OD 0.2
Protocol: Agrobacterium cultures used for transformation are pre-induced (except as otherwise indicated) by acetosyringone (200 μM) and glucose (2%) in AB based induction medium. The procedure followed was as follows:
Agrobacterium cells were centrifuged at 4° C. for 10 min at 3250 g and the pellet was resuspended in the pre-induction medium to a final optical density of 0.2 at A660 and incubated at 28° C. for 12-15 h.
(§1) During pre-induction, AgNO3 was added at two different levels (20 ? M and 40 ? M final concentration) to the pre-induction medium. The final optical density prior to the induction was adjusted to A660 (OD 0.2). Agrobacterium cells were pre-induced for 15 hours. Measurement of the optical density (measure of growth) was taken at the end of pre-induction, just prior to transformation. Agrobacterium cells pre-induced in the absence of AgNO3 were used as a control.

[1] = test system: T-DNA transfer (tumor induction) to Kalanchoe cells
Protocol: Transformation of BMS suspension cells was performed following the protocol described in Table 8. For transforming kalanchoe leaves, a suspension of cells from Agrobacterium strain A281 was applied after performing mechanical wounding as described in White and Nester. The Agrobacterium strain, A136 harboring a binary vector pMON25457 (FIG. 3) was used as a negative control.
as §1

[2] = test system: Agrobacterium tumefaciens strain C58 (ABI)
Protocol: Disarmed Agrobacterium tumefaciens strain C58 (ABI) harboring binary vector pMON18365 (FIG. 2) was used in this Example. The Agrobacterium strain was pre-induced as described previously.
Three mls of pre-induced Agrobacterium suspension (A660 OD 1.0) was added to a 6-well tissue culture plate. After adding the explants, the plant tissues and Agrobacterium suspension cells were subjected to vacuum infiltration for three hours. After the three hour vacuum infiltration, the Agrobacterium suspension was removed and the plant tissues were placed on semi-solid medium containing 10 ? M AgNO3 (final concentration). All the tissues were incubated for three days in the dark.
All explants were transferred to the medium without the growth inhibiting agent and evaluation of Agrobacterium growth was observed seven days post-transfer.

[3] = test system: T-DNA transfer to immature embryos of genotype H99×A188; settings: for Average number of GUS foci/explant: three days
Protocol: (§2) Immature embryos of genotype H99×A188 were isolated as described above. The disarmed Agrobacterium strain ABI harboring binary vector pMON18365 (FIG. 2) was used. The Agrobacterium strain was pre-induced as described above and three mls of pre-induced Agrobacterium suspension (A660 OD 4.0) was added to a 6-well tissue culture plate as described earlier. The inoculation was performed for three hours under vacuum. The Agrobacterium suspension was removed and embryos were placed on respective semi-solid medium containing various concentrations of AgNO3 (0, 10, 20, 40, 60 ? M AgNO3 final concentration). All the tissues were incubated for three days in the dark. The efficiency of T-DNA delivery was estimated by a transient GUS analysis performed three days after co-culture by counting the number of GUS foci per immature embryo explant (Table 21). Efficiency of culture response was determined by transferring the embryos to a delay medium (D medium, supplemented with 500 mg/L Carbenicillin) and taking observation 2 weeks post transfer.

[4] = test system: immature embryos of genotype H99×A188; settings: observed 2 weeks post transfer to delay medium
Protocol: as §2

[5] = test system: immature embryos of genotype (H99×Pa 91)A188
Protocol: Immature embryos of genotype (H99×Pa 91)A188 were isolated as described. […] The Agrobacterium strain was pre-induced as described and three mls of pre-induced Agrobacterium suspension (A660 OD 0.5) supplemented with 20 ? M AgNO3 was added to a 6-well tissue culture plate as described above. Inoculation was performed for 15 minutes. The Agrobacterium suspension was removed and embryos were placed on semi-solid co-culture medium containing 20 ? M AgNO3 (final concentration). All the tissues were incubated for three days in the dark. […] Control embryos were cultured in the absence of AgNO3 in all steps of the transformation process. Transformation efficiency was calculated based on the number of embryos producing paromomycin resistant calli.

[6] = test system: immature embryos of genotype (H99×Pa 91)A188; experiment: Transformation efficiency of corn with different growth inhibiting agents during co-culture; assay type: cell-based; settings: three days, OD 4.0
Protocol: b) Biological assay (leaf bleach assay). Leaf samples (a leaf punch) from approximately 2-week-old seedlings were placed in wells of 24-well cell culture clusters (Costar Corporation, Cambridge, Mass.). Each well was filled with 0.5 ml aqueous solution composed of 300 mg/L paromomycin (Sigma) and 100 mg/L Benlate (a fungicide made by Du Pont), 100 mg/IL Benlate alone was used as a control. Three leaf samples from the same leaf of each plant were placed in two wells containing paromomycin plus Benlate and one well containing Benlate alone, respectively. Leaf samples from non-transformed plants were used as negative controls. The samples were vacuum-infiltrated in a dessicator using an in-house vacuum system for 5 min and then the clusters were sealed tightly with parafilm before being placed under light (140 μMol m-2s-1). The results were determined after 60 hours.
(§3) Immature embryos of genotype (H99×Pa 91)A188 were isolated as described. […] The Agrobacterium strain was pre-induced as described. The inoculation was performed using a concentration of A660 OD 4.0 for 15 minutes as described. Post inoculation, Agrobacterium suspension was removed and embryos were placed on different semi-solid co-culture media supplemented with various bacteriocidal compounds. All the tissues were incubated for three days in the dark. The transformation protocol followed was as described previously (corn IE transformation) except that the 1st selection with 50 mg/L Paromomycin was replaced with 25 mg/L Paromomycin for 2 weeks and 50 mg/L Paromomycin for 2 additional weeks. Transformation efficiency was calculated based on the number of embryos producing nptII positive plants as determined by a leaf bleach assay as described earlier. Three weeks after the transformation, the quality and growth characteristics of IE-derived callus co-cultured in the presence of different growth inhibiting agents.

[7] = test system: IE-derived callus, genotype (H99×Pa 91)A188; settings: 50 μM in co-culture medium; three weeks after the transformation
Protocol: as §3

[8] = 20 μM AgNO3 in pre-induction medium
[9] = 40 μM AgNO3 in pre-induction medium
[10] = 10 μM AgNO3 in co-culture medium
[11] = 20 μM AgNO3 in co-culture medium
[12] = 40 μM AgNO3 in co-culture medium
[13] = 60 μM AgNO3 in co-culture medium

O=[N+]([O-])[O-].[Ag+] [AgNO3, silver nitrate]
Results (growth of Agrobacterium cells) (Agrobacterium cells; [8]): no growth | OD A660 after 15 hours growth (Agrobacterium cells; [8]): 0.23 | Results (growth of Agrobacterium cells) (Agrobacterium cells; [9]): no growth | OD A660 after 15 hours growth (Agrobacterium cells; [9]): 0.24 | Effect on Agrobacterium cells, plating on semi-solid LB plates (Agrobacterium cells; 15 hour culture period in the presence of AgNO3 (20 or 40 μM)): lethal | Results (T-DNA transfer) ([1]; A281 pre-induced with 20 μM AgNO3): no transfer | Results (T-DNA transfer) ([1]; A281 pre-induced with 40 μM AgNO3): no transfer | Growth of Agrobacterium cells surrounding explants ([2]; co-culture medium with 10 μM AgNO3, three days): No growth | Growth of Agrobacterium cells surrounding explants after transfer to medium without the agent ([2]; seven days post-transfer, after three days on 10 μM AgNO3): Profuse growth | Effect on frequency of T-DNA transfer and tissue survival ([3]; 10 μM AgNO3 during co-culture): positive effect | Average number of GUS foci/explant [3, 10]: 63 | Average number of GUS foci/explant [3, 11]: 26 | Average number of GUS foci/explant [3, 12]: 28 | Effect on T-DNA transfer ([3]; 60 μM AgNO3 during co-culture): inhibitory | Average number of GUS foci/explant [3, 13]: 12 | % of immature embryos responding to culture [4, 10]: 42% | % of immature embryos responding to culture [4, 11]: 64% | % of immature embryos responding to culture [4, 12]: 62% | % of immature embryos responding to culture [4, 13]: 60% | % Transformation ([5]; 5d 20 μM AgNO3: present during inoculation and 5 day delay, not during 3 day co-culture): 7.8 (4/51) % | % Transformation ([5]; 8d 20 μM AgNO3: present during inoculation, 3 day co-culture and 5 day delay): 9.0 (5/55) % | % Transformation ([6]; 20 μM in co-culture medium): 16% | % Transformation ([6]; 50 μM in co-culture medium): 6.3% | Culture response (callus quality) on co-culture media [7]: embryogenically the most competent callus
